Reference: patent publication US6825348B2, “Antiviral compounds” (Academia Sinica, priority 2002, dated 2004)
Converted amounts (≈) assume the structure as drawn. Read-outs that look alike come from different tables or passages of the source.

Tests used:
HIV-2 (LAV-2) = experiment: Inhibition of HIV-2 cytopathogenicity in MT4 cells; assay type: cell-based, human immunodeficiency virus; settings: Human immunodeficiency virus 2; MT4 cells, average of duplicates; read-out: IC50 HIV-2 (LAV-2)
[1] = Lipophilicity, 1-octanol/water partition coefficient
[2] = system: herpes simplex type 1 virus (HSV-1) (KOS); experiment: Inhibition of HSV-1 cytopathogenicity in Vero cell culture; assay type: cell-based; settings: read-out: IC50 HSV-1 (KOS)
CEM cells = experiment: Toxicity toward CEM cells
[3] = system: human cytomegalovirus (AD-169); experiment: Inhibition of HCMV cytopathogenicity in Vero cell culture; assay type: cell-based; settings: Human betaherpesvirus 5, AD169; Vero cell culture; 50% inhibition of cytopathogenicity; for 1:1 mixtures IC50 refers to known antiviral drugs; read-out: IC50 HCMV (AD-169)
HSV-1 (KOS) = experiment: Anti-HSV-1 activity in vivo, HSV-1-induced mortality in NMRI mice; settings: 6 days; for mean day of animal death / mean day of symptom initiation: terminated day 21; for responders at 100 mg/kg / responders at 150 mg/kg / responders at 250 mg/kg: Human alphaherpesvirus 1, ip, 504 h; for protection against HSV-induced mortality: 150 mg/kg dose level i.p.
HeLa cells [4] = experiment: Toxicity, morphological changes in HeLa cells
[5] = Solubility in water (phosphate buffer, UV absorbance); settings: pH 6.8, aqueous buffer, thermodynamic from solid
PRPP synthetase = PRPP synthetase (UniProt P0A717); experiment: PRPP synthetase reaction, conversion to diphosphates and inhibition of AMP phosphorylation; assay type: biochemical; settings: inhibition of AMP phosphorylation, 37° C., 15 min
Experimental: Enzymatic Conversion of Acyclic Nucleoside Phosphonates and Nucleotide 5′-Monophosphate Analog to Their Antivirally Active Diphosphates (Triphosphate Equivalents). Substrate affinities of acyclic nucleoside phosphonates 4, 20, 21, and dinucleotide analog 24 for PRPP synthetase as well as their inhibitory effect against the enzyme were evaluated according to the established procedures. See, e.g., Balzarini et al. (1991) J. Biol. Chem. 266: 8686-8689 and references cited therein. The assays were then terminated after 4 h by the addition of MeOH. HPLC on an anion-exchange Partisphere column was used to analyze the formation of […] 21pp, PMEApp, 4pp, 20pp, and 24pp.

MT4 cells = experiment: Toxicity toward MT4 cells
[6] = system: thymidine kinase-deficient (TK−) varicella-zoster virus (YS/R); experiment: microbe, parasite or virus in culture; assay type: cell-based; settings: Human alphaherpesvirus 3, Vero, read-out: IC50 TK−VZV (YS/R)
[7] = target: T1, calf mucosal adenosine deaminase (ADA, EC 3.5.4.4) (Bos taurus, UniProt P56658); experiment: Substrate activity and competitive inhibition of adenosine deaminase; assay type: biochemical; settings: for Ki: inhibition of ADA with ara-A 3 as substrate
T1 sequence (P56658 1-363): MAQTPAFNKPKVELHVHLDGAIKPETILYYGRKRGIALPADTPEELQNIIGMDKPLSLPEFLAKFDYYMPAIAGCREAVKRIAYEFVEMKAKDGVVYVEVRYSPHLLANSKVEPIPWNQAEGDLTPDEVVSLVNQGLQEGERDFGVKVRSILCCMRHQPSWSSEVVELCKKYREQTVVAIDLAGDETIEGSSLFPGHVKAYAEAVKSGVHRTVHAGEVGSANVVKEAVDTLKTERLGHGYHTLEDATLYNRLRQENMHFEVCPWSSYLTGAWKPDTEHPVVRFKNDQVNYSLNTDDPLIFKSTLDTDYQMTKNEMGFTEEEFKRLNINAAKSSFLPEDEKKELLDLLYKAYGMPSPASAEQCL

[8] = system: moloney murine sarcoma virus (MSV); experiment: Inhibition of MSV cytopathogenicity in CEM cells (cell-protection assay); assay type: cell-based; settings: Moloney murine sarcoma virus, CCRF-CEM; CEM cells, average of duplicates; read-out: IC50 MSV
HIV-1 (IIIB) = experiment: microbe, parasite or virus in culture; assay type: cell-based; settings: Human immunodeficiency virus 1, IIIB; MT4 cells, average of duplicates; read-out: IC50 HIV-1 (IIIB)
Vero cells [9] = experiment: Toxicity, morphological changes in Vero cells
[10] = LD50 and toxicity in mice, intraperitoneal
[11] = system: Snake venom phosphodiesterase; experiment: Activity of snake venom phosphodiesterase against nucleotide analogs; settings: pH 9.2, 37° C., 8 h
[12] = system: thymidine kinase-positive (TK+) varicella-zoster virus (YS); experiment: Inhibition of TK+ VZV cytopathogenicity in Vero cell culture; assay type: cell-based
Vero cells [13] = settings: African green monkey
HeLa cells [14] = settings: human
MSV = settings: for mean day of animal death / percentage of MSV-infected mice alive at day 21 postinfection / percentage of MSV-infected mice without tumors at day 21 postinfection: two injections; for mean day of tumor initiation: two injections within two days
[15] = Human alphaherpesvirus 1, Vero cell culture, 50% inhibition of virus-induced cytopathogenicity, mean of duplicates, for 1:1 (W/W) mixtures IC50 refers to known antiviral drugs
[16] = 100 mg/kg/day i.p., read-out: percentage of HSV-1-infected mice alive at day 21 postinfection
[17] = 100 mg/kg/day i.p., read-out: percentage of HSV-1-infected mice without symptoms at day 21 postinfection
[18] = 150 mg/kg/day i.p., read-out: percentage of HSV-1-infected mice alive at day 21 postinfection
[19] = 150 mg/kg/day i.p., read-out: percentage of HSV-1-infected mice without symptoms at day 21 postinfection
[20] = 250 mg/kg/day i.p., read-out: percentage of HSV-1-infected mice alive at day 21 postinfection
[21] = 250 mg/kg/day i.p., read-out: percentage of HSV-1-infected mice without symptoms at day 21 postinfection

| SMILES | IC50 (HIV-2 (LAV-2)) | logP at […] [1] | CEM cell, concentration reducing the number of viable uninfected cells by 50% (CEM cells) | IC50 [3] | mean day of animal death (HSV-1 (KOS); 100 mg/kg/day i.p.) | mean day of symptom initiation (HSV-1 (KOS); 100 mg/kg/day i.p.) | mean day of animal death (HSV-1 (KOS); 150 mg/kg/day i.p.) | mean day of symptom initiation (HSV-1 (KOS); 150 mg/kg/day i.p.) | mean day of animal death (HSV-1 (KOS); 250 mg/kg/day i.p.) | mean day of symptom initiation (HSV-1 (KOS); 250 mg/kg/day i.p.) | responders at 100 mg/kg (HSV-1 (KOS); [16]) | responders at 100 mg/kg (HSV-1 (KOS); [17]) | responders at 150 mg/kg (HSV-1 (KOS); [18]) | responders at 150 mg/kg (HSV-1 (KOS); [19]) | responders at 250 mg/kg (HSV-1 (KOS); [20]) | responders at 250 mg/kg (HSV-1 (KOS); [21]) | MT4 cell, concentration reducing the number of viable uninfected cells by 50% (MT4 cells) | ADA substrate / inhibitor property in words [7] | IC50 [8] | IC50 (HIV-1 (IIIB)) | further results |
| --- | --- | --- | --- | --- | --- | --- | --- | --- | --- | --- | --- | --- | --- | --- | --- | --- | --- | --- | --- | --- | --- |
| Nc1ncnc2ncn(CCOCP(=O)(O)O)c12 [Compound 20, 7-[2-(Phosphonomethoxy)ethyl]adenine] | 9.1 µg/mL (≈ 33.3 µM) | 0.95 | >300 µg/mL | 21 µg/mL (≈ 76.9 µM) | 15.4 ± 1.3 days | 12.8 ± 1.1 days | 17.8 ± 1.5 days | 15.0 ± 0.9 days | 20.0 ± 1.7 days | 16.8 ± 2.4 days | 70% | 51% | 80% | 62% | 95% | 75% | >300 µg/mL | neither a good substrate nor an inhibitor | 27 µg/mL (≈ 98.8 µM) | 7.8 µg/mL (≈ 28.6 µM) | IC50 [2, 15]: 20 µg/mL (≈ 73.2 µM); HeLa cell, concentration causing microscopically visible change or disruption in about 50% of the cell sheet (HeLa cells [4]): 236 µg/mL; solubility at 20 h [5]: 2890 µg/mL (≈ 10600 µM); Ki (PRPP synthetase): 16.7 mM; IC50 [6]: 8 µg/mL (≈ 29.3 µM); Ki [7]: > 0.8 mM; Vero cell, concentration causing microscopically visible change or disruption in about 50% of the cell sheet (Vero cells [9]): 246 µg/mL |
| COC1=C(OC)/C(=C/COP(=O)(O)OC[C@H]2O[C@@H](n3cnc4c(N)ncnc43)[C@H](O)[C@@H]2OP(=O)(O)COCCn2cnc3ncnc(N)c32)OC1=O [Compound 25, 9-[[(Z)-4-(ethylidene)-2,3-dimethoxy-Δ^a,b-butenolide]-β-D-furanosyl]adenine-3′-[[1-(adenin-7-yl-ethoxy)methyl]phosphonate]-4,5′-phosphate] | 4.2 µg/mL (≈ 5.45 µM) | – | >300 µg/mL | 4.1 µg/mL (≈ 5.32 µM) | >21 days | 19.6 ± 1.5 days | >21 days | >21 days | >21 days | >21 days | 100% | 94% | 100% | 100% | 100% | 100% | >300 µg/mL | neither a good substrate nor an inhibitor | 13 µg/mL (≈ 16.9 µM) | 4.9 µg/mL (≈ 6.36 µM) | logP at […] ([1]; 1-octanol/water (0.10 M phosphate buffer)): 1.37; IC50 ([2]; Human alphaherpesvirus 1, Vero): 3 µg/mL (≈ 3.89 µM); LD50 ([10]; NMRI, mouse, in vivo, ip): 675 mg/kg; level up to which no toxicity was shown ([10]; mice, intraperitoneal): 400 mg/kg; protection against HSV-induced mortality (HSV-1 (KOS)): full protection; stability to snake venom phosphodiesterase in words [11]: completely resistant; IC50 TK+VZV (YS) [12]: 1.7 µg/mL (≈ 2.21 µM); Vero cell, concentration causing microscopically visible change or disruption in about 50% of the cell sheet (Vero cells [13]): 350 µg/mL; solubility at 20 h ([5]; phosphate buffer): 5160 µg/mL (≈ 6700 µM); HeLa cell, concentration causing microscopically visible change or disruption in about 50% of the cell sheet (HeLa cells [14]): 326 µg/mL; IC50 [6]: 2 µg/mL (≈ 2.6 µM) |
| Nc1ncnc2c1ncn2CCOCP(=O)(O)O [PMEA 4, 9-[2-(phosphonomethoxy)ethyl]adenine, reference compound] | 3.8 µg/mL (≈ 13.9 µM) | 0.69 | 285 µg/mL | 15 µg/mL (≈ 54.9 µM) | 17.0 ± 1.1 days | 14.7 ± 1.4 days | >21 days | 18.5 ± 1.9 days | >21 days | >21 days | 77% | 56% | 100% | 80% | 100% | 100% | 274 µg/mL | neither a good substrate nor an inhibitor | 2 µg/mL (≈ 7.32 µM) | 4.1 µg/mL (≈ 15 µM) | IC50 [2, 15]: 11 µg/mL (≈ 40.3 µM); protection against HSV-induced mortality (HSV-1 (KOS)): full protection; HeLa cell, concentration causing microscopically visible change or disruption in about 50% of the cell sheet (HeLa cells [4]): 146 µg/mL; mean day of animal death (MSV; 10 mg/kg/day i.p.): 13.0 ± 1.1 days; percentage of MSV-infected mice alive at day 21 postinfection (MSV; 10 mg/kg/day i.p.): (42%); percentage of MSV-infected mice without tumors at day 21 postinfection (MSV; 10 mg/kg/day i.p.): (19%); mean day of tumor initiation (MSV; 10 mg/kg/day i.p.): 9.6 ± 1.5 days; percentage of MSV-infected mice without tumors at day 21 postinfection (MSV; 10 mg/kg/day i.p., listed as 4): 19%; mean day of animal death (MSV; 20 mg/kg/day i.p.): 15.9 ± 1.7 days; percentage of MSV-infected mice alive at day 21 postinfection (MSV; 20 mg/kg/day i.p.): (76%); percentage of MSV-infected mice without tumors at day 21 postinfection (MSV; 20 mg/kg/day i.p.): (58%); mean day of tumor initiation (MSV; 20 mg/kg/day i.p.): 12.0 ± 1.3 days; mean day of animal death (MSV; 50 mg/kg/day i.p.): 17.8 ± 2.0 days; percentage of MSV-infected mice alive at day 21 postinfection (MSV; 50 mg/kg/day i.p.): (96%); percentage of MSV-infected mice without tumors at day 21 postinfection (MSV; 50 mg/kg/day i.p.): (84%); mean day of tumor initiation (MSV; 50 mg/kg/day i.p.): 12.5 ± 1.6 days; solubility at 20 h [5]: 1970 µg/mL (≈ 7210 µM); Ki (PRPP synthetase): 3.02 mM; Ki [7]: > 0.8 mM; Vero cell, concentration causing microscopically visible change or disruption in about 50% of the cell sheet (Vero cells [9]): 175 µg/mL |
